For this data set the following is noted: rcm bond, Grubbs II, DCM, 40.0 °C.

Like-named read-outs stand apart in the source and are kept apart here.

Consider `COC(=O)Nc1ccc2c(c1)NC(=O)[C@H](C)/C=C/C[C@H](NC(=O)OC(C)(C)C)c1cc-2ccn1`, for which the ring closure, yield of all isomers (from C=CC[C@H](NC(=O)OC(C)(C)C)c1cc(-c2ccc(NC(=O)OC)cc2NC(=O)[C@H](C)C=C)ccn1, 11.76 mM, 4.0 h) worked out at 71.2%. In turn, `COC(=O)Nc1ccc2c(c1)NC(=O)[C@H](C)/C=C/C[C@H](NC(=O)OC(C)(C)C)c1nc-2cn1COCC[Si](C)(C)C` returned a ring closure, yield of all isomers (from C=CC[C@H](NC(=O)OC(C)(C)C)c1nc(-c2ccc(NC(=O)OC)cc2NC(=O)[C@H](C)C=C)cn1COCC[Si](C)(C)C, 9.73 mM, 21.5 h) of 74%. As to `C[C@@H]1/C=C/C[C@H](NC(=O)OC(C)(C)C)c2cn(COCC[Si](C)(C)C)c(n2)-c2ccc([N+](=O)[O-])cc2NC1=O`, the ring closure, yield of all isomers (from C=CC[C@H](NC(=O)OC(C)(C)C)c1cn(COCC[Si](C)(C)C)c(-c2ccc([N+](=O)[O-])cc2NC(=O)[C@H](C)C=C)n1, 1.016 mM) amounted to 55.9%.

The record behind these values is patent US9376444.
